Legend:
Type in all cases: functional
[1] = tested on: Thrips palmi; assay: Insecticidal activity against adult Thrips palmi assessed as mortality at 37.5 ug/disk after 24 hr relative to control
[2] = tested on: Thrips palmi; assay: Insecticidal activity against adult Thrips palmi assessed as mortality at 50 ug/disk after 24 hr relative to control
[3] = tested on: Plutella xylostella; assay: Insecticidal activity against adult Plutella xylostella (diamondback moth) assessed as mortality at 60 ug/disc after 24 hr relative to control
[4] = tested on: Frankliniella intonsa; assay: Insecticidal activity against adult Frankliniella intonsa assessed as mortality at 37.5 ug/disk after 72 hr relative to control
[5] = tested on: Frankliniella intonsa; assay: Insecticidal activity against adult Frankliniella intonsa assessed as mortality at 50 ug/disk after 72 hr relative to control
[6] = tested on: Frankliniella intonsa; assay: Insecticidal activity against adult Frankliniella intonsa assessed as mortality at 12.5 ug/disk after 72 hr relative to control
[7] = tested on: Thrips palmi; assay: Insecticidal activity against adult Thrips palmi assessed as mortality at 12.5 ug/disk after 72 hr relative to control
[8] = tested on: Spodoptera litura; assay: Insecticidal activity against adult Spodoptera litura assessed as mortality at 600 ug/disc after 48 hr relative to control
[9] = tested on: Thrips palmi; assay: Insecticidal activity against adult Thrips palmi assessed as mortality at 37.5 ug/disk after 48 hr relative to control
[10] = tested on: Nilaparvata lugens; assay: Insecticidal activity against adult Nilaparvata lugens (brown planthopper) assessed as mortality at 60 ug/disc after 24 hr relative to control
[11] = tested on: Frankliniella intonsa; assay: Insecticidal activity against adult Frankliniella intonsa assessed as mortality at 25 ug/disk after 24 hr relative to control
[12] = tested on: Thrips palmi; assay: Insecticidal activity against adult Thrips palmi assessed as mortality at 25 ug/disk after 48 hr relative to control
[13] = tested on: Plutella xylostella; assay: Insecticidal activity against adult Plutella xylostella (diamondback moth) assessed as mortality at 600 ug/disc after 24 hr relative to control
[14] = tested on: Thrips palmi; assay: Insecticidal activity against adult Thrips palmi assessed as mortality at 12.5 ug/disk after 48 hr relative to control
[15] = tested on: Frankliniella occidentalis; assay: Insecticidal activity against adult Frankliniella occidentalis (western flower thrips) assessed as mortality at 12.5 ug/disc after 72 hr relative to control
[16] = tested on: Thrips palmi; assay: Insecticidal activity against adult Thrips palmi assessed as mortality at 75 ug/disk after 24 hr relative to control
[17] = tested on: Thrips palmi; assay: Insecticidal activity against adult Thrips palmi assessed as mortality at 50 ug/disk after 48 hr relative to control
[18] = tested on: Frankliniella intonsa; assay: Insecticidal activity against adult Frankliniella intonsa assessed as mortality at 12.5 ug/disk after 48 hr relative to control
[19] = tested on: Frankliniella occidentalis; assay: Insecticidal activity against adult Frankliniella occidentalis (western flower thrips) assessed as mortality at 75 ug/disc after 24 hr relative to control
[20] = tested on: Nilaparvata lugens; assay: Insecticidal activity against adult Nilaparvata lugens (brown planthopper) assessed as mortality at 600 ug/disc after 48 hr relative to control
[21] = tested on: Frankliniella intonsa; assay: Insecticidal activity against adult Frankliniella intonsa assessed as mortality at 25 ug/disk after 48 hr relative to control
[22] = tested on: Plutella xylostella; assay: Insecticidal activity against adult Plutella xylostella (diamondback moth) assessed as mortality at 60 ug/disc after 48 hr relative to control
[23] = tested on: Thrips palmi; assay: Insecticidal activity against adult Thrips palmi assessed as mortality at 12.5 ug/disk after 24 hr relative to control
[24] = tested on: Frankliniella intonsa; assay: Insecticidal activity against adult Frankliniella intonsa assessed as mortality at 50 ug/disk after 48 hr relative to control
[25] = tested on: Frankliniella occidentalis; assay: Insecticidal activity against adult Frankliniella occidentalis (western flower thrips) assessed as mortality at 37.5 ug/disc after 24 hr relative to control
[26] = tested on: Frankliniella intonsa; assay: Insecticidal activity against adult Frankliniella intonsa assessed as mortality at 25 ug/disk after 72 hr relative to control
[27] = tested on: Spodoptera litura; assay: Insecticidal activity against adult Spodoptera litura assessed as mortality at 60 ug/disc after 48 hr relative to control
[28] = tested on: Frankliniella intonsa; assay: Insecticidal activity against adult Frankliniella intonsa assessed as mortality at 75 ug/disk after 24 hr relative to control
[29] = tested on: Frankliniella intonsa; assay: Insecticidal activity against adult Frankliniella intonsa assessed as mortality at 37.5 ug/disk after 24 hr relative to control
[30] = tested on: Nilaparvata lugens; assay: Insecticidal activity against adult Nilaparvata lugens (brown planthopper) assessed as mortality at 600 ug/disc after 24 hr relative to control
[31] = tested on: Frankliniella occidentalis; assay: Insecticidal activity against adult Frankliniella occidentalis (western flower thrips) assessed as mortality at 12.5 ug/disc after 24 hr relative to control
[32] = tested on: Frankliniella occidentalis; assay: Insecticidal activity against adult Frankliniella occidentalis (western flower thrips) assessed as mortality at 37.5 ug/disc after 48 hr relative to control
[33] = tested on: Thrips palmi; assay: Insecticidal activity against adult Thrips palmi assessed as mortality at 25 ug/disk after 24 hr relative to control
[34] = tested on: Spodoptera litura; assay: Insecticidal activity against adult Spodoptera litura assessed as mortality at 60 ug/disc after 24 hr relative to control
[35] = tested on: Frankliniella intonsa; assay: Insecticidal activity against adult Frankliniella intonsa assessed as mortality at 37.5 ug/disk after 48 hr relative to control
[36] = tested on: Plutella xylostella; assay: Insecticidal activity against adult Plutella xylostella (diamondback moth) assessed as mortality at 600 ug/disc after 48 hr relative to control
[37] = tested on: Frankliniella occidentalis; assay: Insecticidal activity against adult Frankliniella occidentalis (western flower thrips) assessed as mortality at 12.5 ug/disc after 48 hr relative to control
[38] = tested on: Thrips palmi; assay: Insecticidal activity against adult Thrips palmi assessed as mortality at 37.5 ug/disk after 72 hr relative to control
[39] = tested on: Frankliniella intonsa; assay: Insecticidal activity against adult Frankliniella intonsa assessed as mortality at 12.5 ug/disk after 24 hr relative to control
[40] = tested on: Nilaparvata lugens; assay: Insecticidal activity against adult Nilaparvata lugens (brown planthopper) assessed as mortality at 60 ug/disc after 48 hr relative to control
[41] = tested on: Spodoptera litura; assay: Insecticidal activity against adult Spodoptera litura assessed as mortality at 600 ug/disc after 24 hr relative to control
[42] = tested on: Thrips palmi; assay: Insecticidal activity against adult Thrips palmi assessed as mortality at 25 ug/disk after 72 hr relative to control

`C=C1CCOC1=O` [TULIPALINE A] was tested, and the mortality at 37.5 µg/disc [1] was 56%, the mortality at 50 µg/disc [2] was 80% and the mortality at 60 µg/disc [3] was 0%. For the same compound, the mortality at 37.5 µg/disc [4] was 76%, the mortality at 50 µg/disc [5] was 94% and the mortality at 12.5 µg/disc [6] was 0%. It also gave a mortality at 12.5 µg/disc [7] of 20%, a mortality at 600 µg/disc [8] of 20% and a mortality at 37.5 µg/disc [9] of 94%. It also gave a mortality at 60 µg/disc [10] of 0%, a mortality at 25 µg/disc [11] of 34% and a mortality at 25 µg/disc [12] of 70%. For the same compound, the mortality at 600 µg/disc [13] was 0%, the mortality at 12.5 µg/disc [14] was 14% and the mortality at 12.5 µg/disc [15] was 12%. The mortality at 75 µg/disc [16] was 100%, the mortality at 50 µg/disc [17] was 100% and the mortality at 12.5 µg/disc [18] was 0%. For the same compound, the mortality at 75 µg/disc [19] was 100%, the mortality at 600 µg/disc [20] was 30% and the mortality at 25 µg/disc [21] was 48%. It also gave a mortality at 60 µg/disc [22] of 0%, a mortality at 12.5 µg/disc [23] of 2% and a mortality at 50 µg/disc [24] of 70%. For the same compound, the mortality at 37.5 µg/disc [25] was 52%, the mortality at 25 µg/disc [26] was 48% and the mortality at 60 µg/disc [27] was 0%. For the same compound, the mortality at 75 µg/disc [28] was 100%, the mortality at 37.5 µg/disc [29] was 58% and the mortality at 600 µg/disc [30] was 0%. It also gave a mortality at 12.5 µg/disc [31] of 4%, a mortality at 37.5 µg/disc [32] of 100% and a mortality at 25 µg/disc [33] of 14%. For the same compound, the mortality at 60 µg/disc [34] was 0%, the mortality at 37.5 µg/disc [35] was 66% and the mortality at 600 µg/disc [36] was 50%. The mortality at 12.5 µg/disc [37] was 8%, the mortality at 37.5 µg/disc [38] was 100% and the mortality at 12.5 µg/disc [39] was 0%. For the same compound, the mortality at 60 µg/disc [40] was 0%, the mortality at 600 µg/disc [41] was 0% and the mortality at 25 µg/disc [42] was 90%.

Reference: ChEMBL document CHEMBL3046447, “Insecticidal Activity of α-Methylene-γ-butyrolactone against Several Insect Pests” (1999)
